Key:
[1] = system: SF-295; test: NCI SRB cytotoxicity, CNS SF-295; assay type: cell-based, human; settings: SF-295, CNS, 48 h
Protocol: (§1) Biological Activity: In vitro biological activity studies were carried out at National Cancer Institute (U.S.A.).
(§2) For each compound, dose response curves for each cell line were measured at a minimum of five concentrations at 10 fold dilutions. A protocol of 48 h continuous drug exposure was used, and a sulforhodamine B (SRB) protein assay was used to estimate cell viability or growth. The concentration causing 50% cell growth inhibition (GI50), total cell growth inhibition (TGI, 0% growth) and 50% cell death (LC50, −50% growth) compared with the control was calculated.

[2] = system: K-62; test: NCI SRB cytotoxicity, Leukemia K-62; assay type: cell-based, human; settings: K-62, Leukemia, 48 h
Protocol: as §1, §2

[3] = system: HL-60(TB); settings: Leukemia, 48 h, SRB
Protocol: as §1, §2

[4] = system: SF-539; test: NCI SRB cytotoxicity, CNS SF-539; assay type: cell-based, human; settings: SF-539, CNS, 48 h
Protocol: as §1, §2

[5] = system: UACC-62; test: NCI SRB cytotoxicity, Melanoma UACC-62; assay type: cell-based, human; settings: UACC-62, Melanoma, 48 h
Protocol: as §1, §2

[6] = system: HOP-92; test: NCI SRB cytotoxicity, Non-small-cell lung HOP-92; assay type: cell-based, human; settings: HOP-92, Non-small-cell lung, 48 h
Protocol: as §1, §2

[7] = system: CAKI-1; test: NCI SRB cytotoxicity, Renal CAKI-1; assay type: cell-based, human; settings: CAKI-1, Renal, 48 h
Protocol: as §1, §2

[8] = system: LOXIMVI; test: NCI SRB cytotoxicity, Melanoma LOXIMVI; assay type: cell-based, human; settings: 48 h
Protocol: as §1, §2

[9] = system: UO-31; test: NCI SRB cytotoxicity, Renal UO-31; assay type: cell-based, human; settings: UO-31, Renal, 48 h
Protocol: as §2

[10] = system: SNB-19; test: NCI SRB cytotoxicity, CNS SNB-19; assay type: cell-based, human; settings: SNB-19, CNS, 48 h
Protocol: as §1, §2

[11] = system: SW-620; test: NCI SRB cytotoxicity, Colon SW-620; assay type: cell-based, human; settings: SW-620, Colon, 48 h
Protocol: as §1, §2

[12] = system: SN12C; test: NCI SRB cytotoxicity, Renal SN12C; assay type: cell-based, human; settings: 48 h
Protocol: as §1, §2

[13] = system: MCF7; test: NCI SRB cytotoxicity, Breast MCF7; assay type: cell-based, human; settings: 48 h
Protocol: as §1, §2

[14] = system: 786-0; test: NCI SRB cytotoxicity, Renal 786-0; assay type: cell-based, human; settings: 786-0, Renal, 48 h
Protocol: as §1, §2

[15] = system: OVCAR-3; test: NCI SRB cytotoxicity, Ovarian OVCAR-3; assay type: cell-based, human; settings: OVCAR-3, Ovarian, 48 h
Protocol: as §1, §2

[16] = system: RPMI-8226; test: NCI SRB cytotoxicity, Leukemia RPMI-8226; assay type: cell-based, human; settings: RPMI-8226, Leukemia, 48 h
Protocol: as §2

[17] = system: HCT-116; test: NCI SRB cytotoxicity, Colon HCT-116; assay type: cell-based, human; settings: HCT-116, Colon, 48 h
Protocol: as §1, §2

[18] = system: human tumor cell lines; test: NCI in vitro cytotoxicity SRB assay, mean graph midpoints over the panel; assay type: cell-based; settings: 48 h continuous exposure
Protocol: as §1, §2

[19] = system: SK-MEL-2; test: NCI SRB cytotoxicity, Melanoma SK-MEL-2; assay type: cell-based, human; settings: SK-MEL-2, Melanoma, 48 h
Protocol: as §1, §2

[20] = system: SK-OV-3; test: NCI SRB cytotoxicity, Ovarian SK-OV-3; assay type: cell-based, human; settings: SK-OV-3, Ovarian, 48 h
Protocol: as §1, §2

Row | Structure (SMILES) | Log GI 50 [1] [mol/L] | Log LC 50 [1] [mol/L] | Log GI 50 [2] [mol/L] | Log LC 50 [2] [mol/L] | Log GI 50 [3] [mol/L] | Log LC 50 [3] [mol/L] | Log GI 50 [4] [mol/L] | Log LC 50 [4] [mol/L] | Log GI 50 [5] [mol/L] | Log LC 50 [5] [mol/L] | Log GI 50 [6] [mol/L] | Log LC 50 [6] [mol/L] | Log GI 50 [7] [mol/L] | Log LC 50 [7] [mol/L] | Log GI 50 [9] [mol/L] | Log LC 50 [9] [mol/L] | Log GI 50 [10] [mol/L] | Log LC 50 [10] [mol/L] | Log GI 50 [11] [mol/L] | Log LC 50 [11] [mol/L] | further results
1 | COc1cc2c(cc1OCCCCCN1CCN(CCCCCOc3cc4c(cc3OC)C(=O)N3CCC[C@H]3C=N4)CC1)N=C[C@@H]1CCCN1C2=O [Compound VId] | −5.30 | −4.00 | −5.46 | −4.20 | −5.38 | −4.00 | −5.44 | −4.00 | −5.64 | −4.00 | −5.46 | −4.00 | −5.77 | −4.00 | −4.00 | −4.00 | −4.00 | −4.00 | −5.49 | −4.00 | Log GI 50 [8]: −5.61 mol/L; Log LC 50 [8]: −4.00 mol/L; Log GI 50 [12]: −5.66 mol/L; Log LC 50 [12]: −4.00 mol/L; Log GI 50 [13]: −5.69 mol/L; Log LC 50 [13]: −4.00 mol/L; Log GI 50 [14]: −5.61 mol/L; Log LC 50 [14]: −4.00 mol/L; Log GI 50 [15]: −5.32 mol/L; Log LC 50 [15]: −4.00 mol/L; Log GI 50 [16]: −5.59 mol/L; Log LC 50 [16]: −4.54 mol/L; Log GI 50 [17]: −4.00 mol/L; Log LC 50 [17]: −4.00 mol/L; Log10 GI50 mean graph midpoint (MG_MID) [18]: −5.14; Log10 LC50 mean graph midpoint (MG_MID) [18]: −4.04; Log10 TGI mean graph midpoint (MG_MID) [18]: −4.26
2 | COc1cc2c(cc1OCCN1CCN(CCOc3cc4c(cc3OC)C(=O)N3CCC[C@H]3C=N4)CC1)N=C[C@@H]1CCCN1C2=O [Compound VIa, 1,1′-{[(bisethane-1,N-diyl)piperazine]dioxy}bis[(11aS)-7-methoxy-1,2,3,11a-tetrahydro-5H-pyrrolo[2,1-c][1,4]benzodiazepin-5-one]] | −5.06 | −4.00 | −4.58 | −4.00 | −5.49 | −4.00 | −4.97 | −4.00 | −4.83 | −4.00 | −4.68 | −4.00 | −5.04 | −4.00 | −4.12 | −4.00 | −4.75 | −4.00 | −4.68 | −4.00 | Log GI 50 [19]: −4.57 mol/L; Log LC 50 [19]: −4.00 mol/L; Log GI 50 [12]: −4.90 mol/L; Log LC 50 [12]: −4.00 mol/L; Log GI 50 [20]: −4.00 mol/L; Log LC 50 [20]: −4.00 mol/L; Log GI 50 [13]: −4.88 mol/L; Log LC 50 [13]: −4.00 mol/L; Log GI 50 [14]: −4.84 mol/L; Log LC 50 [14]: −4.00 mol/L; Log GI 50 [15]: −4.68 mol/L; Log LC 50 [15]: −4.00 mol/L; Log GI 50 [16]: −6.08 mol/L; Log LC 50 [16]: −4.33 mol/L; Log GI 50 [17]: −4.47 mol/L; Log LC 50 [17]: −4.00 mol/L; Log10 GI50 mean graph midpoint (MG_MID) [18]: −4.69; Log10 LC50 mean graph midpoint (MG_MID) [18]: −4.03; Log10 TGI mean graph midpoint (MG_MID) [18]: −4.16
